In patent US9518901B2, “Pretreatment method of biological sample, detection method of RNA, and pretreatment kit” (KABUSHIKI KAISHA DNAFORM, priority 2011, dated 2016):

Tests used:
[1] = system: template RNA, influenza A(H3N2) NA region 675-1075 bases; assay: RT-SmartAmp nucleic acid amplification inhibition due to SDS (DNA polymerase inhibitory activity), without rhinal mucosa; assay type: biochemical; settings: 0.5% Triton X-100 in reaction solution, 5 μL of 0.1% SDS solution added; FIG. 10
[2] = cited from earlier work

Triton X-100
nucleic acid amplification activity (mitigation of inhibition due to SDS) [1]: prominent nucleic acid amplification was recognized

O=S(=O)(O)CCN1CCOCC1 [MES]
pKa [2]: 6.15
